# Patent publication EP4772503A1, “LIPOIC ACID DERIVATIVE, VESICLE COMPOUND AND PREPARATION THEREFOR AND USE THEREOF” (Neuboron Medtech Research Institute Ltd., priority 2023, dated 2025)
# Legend:
# [1] = DLS detection of grain size, PDI and zeta potential of vesicles; assay type: physicochemical; conditions: for PDI / d(nm) / zeta potential (mV): vesicles of the derivative, depolymerization and assembly repeated three times; for grain size of the vesicles: vesicles assembled once, pH below 7.2, FIG. 5
# Description: • ① In this test example, the grain sizes of vesicle compounds formed by three compounds, LA-PEG2-BPA, LA-PEG4-BPA, and LA-PEG4-3-BPA, were detected.
# Preparation of the vesicle nanoparticles to be detected for grain size in this test example includes: An appropriate amount of the corresponding compound was weighed and placed into a sample vial, double-distilled water was added, an appropriate amount of NaOH aqueous solution was added to adjust the pH to between 10 and 11 until the starting material was completely dissolved, followed by addition of an appropriate amount of hydrochloric acid to adjust the pH to below 7.2, thereby completing vesicle assembly.
# ② The lipoic acid derivatives were separately assembled into vesicles, including LA-PEG1-BPA (denoted as L^pB-1), LA-PEG2-BPA (denoted as L^pB-2), LA-PEG4-BPA (denoted as L^pB-3), LA-PEG8-BPA (denoted as L^pB-4), LA-PEG1-3-BPA (denoted as L^mB-1), LA-PEG2-3-BPA (denoted as L^mB-2), LA-PEG4-3-BPA (denoted as L^mB-3), and LA-PEG8-3-BPA (denoted as L^mB-4); the vesicle assembly method in this test example was based on the preparation method of the vesicle examples and depolymerization and assembly were repeatedly three times; the physicochemical properties of the self-assembled vesicles were detected, and the grain size, polymer dispersancy index (PDI), and zeta potential of the vesicles were detected using DLS (dynamic light scattering) technology. Table 1 […]
# [2] = Critical aggregation concentration by Nile Red fluorescence; assay type: physicochemical; conditions: Nile Red 1.0 µM, distilled water
# Description: A mixture of Nile Red (at a concentration of 1.0 µM) and the corresponding BPA lipoic acid derivative (at a concentration of 0-20 mM) in distilled water was oscillated overnight under constant temperature conditions. The fluorescence emission intensity of Nile Red at 525 nm wavelength (λex = 485 nm) was measured using a FluoroMax-4 fluorometer. The critical aggregation concentration of the BPA lipoic acid derivative in aqueous medium was calculated from the intersection point of two linear regression equations.
# The critical aggregation concentration (CAC) refers to the minimum concentration at which a substance forms aggregates in an aqueous solution. When the concentration of a surfactant or colloidal particle in an aqueous solution exceeds the critical aggregation concentration, they begin to self-assemble into aggregates due to intermolecular attractive forces. This process is referred to as aggregation or self-assembly.
smiles,measurement,setting,value
O=C(CCCCC1CCSS1)NCCOCCOCCC(=O)NC(Cc1cccc(B(O)O)c1)C(=O)O (stereo not drawn) [L^mB-2],PDI,[1],0.102
same,d(nm),[1],149.1 nm
same,zeta potential (mV),[1],-28.61 mV
same,CAC,[2],254 µM
O=C(CCCCC1CCSS1)NCCOCCC(=O)NC(Cc1ccc(B(O)O)cc1)C(=O)O (stereo not drawn) [L^pB-1],PDI,[1],0.107
same,d(nm),[1],98.9 nm
same,zeta potential (mV),[1],-32.5 mV
same,CAC,[2],243 µM
O=C(CCCCC1CCSS1)NCCOCCOCCOCCOCCOCCOCCOCCOCCC(=O)NC(Cc1cccc(B(O)O)c1)C(=O)O (stereo not drawn) [L^mB-4],PDI,[1],0.237
same,d(nm),[1],284.6 nm
same,zeta potential (mV),[1],-35.2 mV
same,CAC,[2],280 µM
O=C(CCCCC1CCSS1)NCCOCCC(=O)NC(Cc1cccc(B(O)O)c1)C(=O)O (stereo not drawn) [L^mB-1],PDI,[1],0.132
same,d(nm),[1],105.3 nm
same,zeta potential (mV),[1],-30.7 mV
same,CAC,[2],256 µM
O=C(CCCCC1CCSS1)NCCOCCOCCOCCOCCC(=O)NC(Cc1cccc(B(O)O)c1)C(=O)O (stereo not drawn) [L^mB-3],grain size of the vesicles,[1],approximately 114 nm
same,PDI,[1],0.209
same,d(nm),[1],165.7 nm
same,zeta potential (mV),[1],-35.20 mV
same,CAC,[2],274 µM
O=C(CCCCC1CCSS1)NCCOCCOCCC(=O)NC(Cc1ccc(B(O)O)cc1)C(=O)O (stereo not drawn) [L^pB-2],grain size of the vesicles,[1],approximately 244 nm
same,PDI,[1],0.015
same,d(nm),[1],144.7 nm
same,zeta potential (mV),[1],-30.9 mV
same,CAC,[2],248 µM
O=C(CCCCC1CCSS1)NCCOCCOCCOCCOCCOCCOCCOCCOCCC(=O)NC(Cc1ccc(B(O)O)cc1)C(=O)O (stereo not drawn) [L^pB-4],PDI,[1],0.217
same,d(nm),[1],268.4 nm
same,zeta potential (mV),[1],-29.35 mV
same,CAC,[2],277 µM
